Data set [1] can be described thus: Flux of estradiol from equilibrated acrylate adhesive matrices through a 10 mil Silastic membrane (Example 7, Table 2). The class given is in vitro ADME. As to conditions: for Flux: 20 wt % acrylate matrix, 10 mil Silastic membrane, 32° C.; for average flux: average from Table 2 data. The protocol: Consequently, Crystal X provides an advantage in the preparation of pharmaceutical formulations comprising Crystal X especially transdermal drug delivery matrices. When Crystal X crystals are prepared in transdernal drug delivery formulations,the inherent increase in activity due to the higher thermodynamic activity of the Crystal X crystal versus E2-HH provides for increased flux. For example, equilibrated matrices containing Crystal X and E2-HH crystals were prepared in substantial accordance with the teaching of Example 7 herein and assayed for permeation through a Silastic membrane.
Measurement of estradiol flux was determined by drug flux through a 10 mil Silastic membrane in a modified Franz diffusion cells in substantial accordance with the following procedure. The adhesive matrix systems were peeled off the polyester release liner and placed on top of the Silastic membrane. Gentle pressure was applied to insure full contact between the drug adhesive layer and membrane. The membrane with the prototype system was then mounted carefully between the donor and the receiver compartments. The receiver compartment was filled nanopure water and the temperature was maintained at 32° C.±1° C. throughout the experimental period. Samples of receiver content was withdrawn and replaced with fresh buffer. Samples were assayed by HPLC.
Membrane flux (mg/cm^2 /hr) was determined by evaluating the cumulative flux of drug through a Silastic membrane over a given period of time and dividing by the time period. After steady state had been established, the flux values corresponding to steady state were averaged to obtain the flux value.
20 wt % acrylate adhesive matrices were prepared in accordance with Example 1. 20 % Crystal X was prepared in accordance with Example 3. The laminates were allowed to equilibrate for a period of 8 weeks to insure complete crystal structureation. Flux was determined as permeation through a 10 mil Silastic membrane as described above. The cumulative release of estradiol into the receiver was determined by HPLC method described above. The average flux over the period was calculated as the cumulative amount of drug in receiver divided by cumulative time.

For data set [2] the following is noted: cited from earlier work.

SMILES strings stand for the structures.

Take `C[C@]12CC[C@@H]3c4ccc(O)cc4CC[C@H]3[C@@H]1CC[C@@H]2O` [Crystal X, estra-1, 3, 5(10)-triene-3, 17β-diol]: the Flux was 0.132 μg/cm^2 /hr in data set [1] (2.5 hrs), 0.238 μg/cm^2 /hr in data set [1] (8.375 hrs), 0.216 μg/cm^2 /hr in data set [1] (17.625 hrs) and 0.220 μg/cm^2 /hr in data set [1] (27.75 hrs). For the same compound, in data set [1], the average flux was 0.22 μg/cm^2 /hr. Besides, in data set [1] (higher than for E2-HH, 32° C. wet), the “flux value at the end of the flux profile relative to E2-HH” value is “about 2 times”. The thermodynamic activity result in data set [1] (versus E2-HH) is “increased thermodynamic activity with respect to E2-HH”.
For `C[C@]12CC[C@@H]3c4ccc(O)cc4CC[C@H]3[C@@H]1CC[C@@H]2O` [E2-HH], the Flux in data set [1] (2.5 hrs) is given as 0.080 μg/cm^2 /hr; in data set [1] (8.375 hrs) it was 0.139 μg/cm^2 /hr; in data set [1] (17.625 hrs) it was 0.142 μg/cm^2 /hr; in data set [1] (27.75 hrs), 0.146 μg/cm^2 /hr. The same compound registered an average flux in data set [1] of 0.14 μg/cm^2 /hr.
With `C[C@]12CC[C@@H]3c4ccc(O)cc4CC[C@H]3[C@@H]1CC[C@@H]2O` [estradiol, estra-1, 3, 5(10)-triene-3, 17β-diol], in data set [2] (level the normal dosage is to produce, hormone replacement therapy), the “blood level in hormone replacement therapy” value is on record as “about 30 ng/L”. For the same compound, in data set [2] (level utilized, osteoporosis), the “blood level for treatment of osteoporosis” value is “approximately 40 ng/L”.

The values are drawn from patent publication US5928666A, “Crystalline form of estradiol and pharmaceutical formulations comprising same” (Cygnus Inc., priority 1997, dated 1999).
